Data from patent US10308620B2, “Muscarinic M1 receptor positive allosteric modulators” (SUVEN LIFE SCIENCES LIMITED, priority 2015, dated 2019).

Key:
[1] = tested on: soluble amyloid precursor protein α (sAPPα); experiment: Cortical sAPPα levels in mice brain (ELISA); format: in vivo; conditions: male C57BL/6J mice, 10 mg/kg, i.p., sixty minutes post treatment; FIG. 4
Method: Modulation of Soluble Amyloid Precursor Protein α (sAPPα) Levels in Cortex
Estimation of Cortical sAPPα Levels in Mice Brain
Male C57BL/6J mice ([…]) were randomly divided (n=8 group) into five groups. Control group of mice were intraperitoneally (i.p.) administered with vehicle (99.75% of 0.25% HEC HHX+0.25% tween 80) and the treatment group of mice received a single intraperitoneal injection of example 18 (dose volume of 10 mL/kg). Mice were sacrificed by cervical dislocation at 60 minutes after administration of test compound. Brains were quickly isolated and the cortex was dissected at −20° C. The cortex was immediately kept on a dry ice and weighed before being stored at −80° C. until quantification of sAPPα using Enzyme-linked immunosorbent assay (ELISA).
• 1. […]
To investigate the role of an acute treatment of test compound on sAPPα levels, the expression of this protein was measured in homogenates obtained from the cortex of treated and untreated rats by employing ELISA assay. […]
Statistical analyses were performed using the Graph Pad Prism (Version 4). Results are expressed as Mean±SEM levels of sAPPα expressed as percentage of control values (rats treated with vehicle). Statistical significance after treatment was assessed using One-Way ANOVA followed by Dunnett's post test and the significance level was set below p value less than 0.05.

rats = experiment: Contextual fear conditioning task (scopolamine induced memory deficit); format: in vivo, rat; conditions: scopolamine 0.3 mg/kg, s.c.; FIG. 3
Method: Contextual Fear Conditioning Task
Experiment was carried out over a period of two days. On day 1, rats were placed in the operant behavior chamber and allowed to acclimatize for 2 minutes. Rats received an unavoidable foot shock (unconditioned stimulus (US): electric shock of 0.5-0.7 mA for 3 sec). Following a 1 minute interval, shocks were repeated to deliver a total of three US. Rats were administered with vehicle or test compound post training. Scopolamine (0.3 mg/kg, s.c.) was administered 120 minutes after training.
On day 2, rats were placed in the operant behavior chamber and total freezing time was scored for a period of 5 minutes.

[2] = Rodent pharmacokinetic study; format: in vivo, rat; conditions: male Wistar rats
Method: Rodent Pharmacokinetic Study
Male Wistar rats (260±50 grams) were used as experimental animals. Animals were housed individually in polypropylene cage. Two days prior to study, male Wistar rats were anesthetized with isoflurane for surgical placement of jugular vein catheter. Rats were randomly divided for oral (3 mg/kg) and intravenous (1 mg/kg) dosing (n=3/group) and fasted overnight before oral dosing (p.o.). However, rats allocated to intravenous (i.v.) dosing food and water was provided ad libitum.
At pre-determined point, blood was collected through jugular vein and replenished with an equivalent volume of normal saline. Collected blood was transferred into a labeled eppendorf tube containing 10 μL of heparin as an anticoagulant. Typically blood samples were collected at following time points: 0.08, 0.25, 0.5, 1, 2, 4, 6, 8, and 24 hours post dose. Blood was centrifuged at 4000 rpm for 10 minutes. Plasma was separated and stored frozen at −80° C. until analysis. The concentrations of the test compounds were quantified in plasma by qualified LC-MS/MS method using suitable extraction technique. The test compounds were quantified in the calibration range around 1-1000 ng/mL in plasma. Study samples were analyzed using calibration samples in the batch and quality control samples spread across the batch.
Pharmacokinetic parameters Cmax, Tmax, AUCt, T1/2, clearance, Vz and bioavailability were calculated by non-compartmental model using standard non-compartmental model by using Phoenix WinNonlin 6.0.2 or 6.0.3 version Software package.

Male Wistar rats = experiment: Object recognition task model (time induced memory deficit); format: in vivo, rat
Method: Object Recognition Task Model
The cognition enhancing properties of compounds of this invention were estimated by using this model.
Male Wistar rats (8-10 weeks old) were used as experimental animals. Four animals were housed in each cage. Animals were kept on 20% food deprivation from a day prior to experimentation. Water was provided ad libitum throughout the experiment. Animals were maintained on a 12 hours light/dark cycle in temperature and humidity controlled room. The experiment was carried out in an open field made up of acrylic. Rats were habituated to individual arenas (open field) for 1 hour in the absence of any objects on day 1.
One group of 12 rats received vehicle and another set of animals received test compounds or test compounds and Donepezil, before the familiar (T1) and choice (T2) trials. During the familiarization phase, (T1), the rats were placed individually in the arena for 3 minutes, in which two identical objects (a1 and a2) were positioned 10 cm from the wall. 24 hours after T1, trial for long-term memory test was performed. The same rats were placed in the same arena as they were placed in T1 trial. During the choice phase (T2) rats were allowed to explore the arena for 3 minutes in presence of a copy of familiar object (a3) and one novel object (b). During the T1 and T2 trial, explorations of each object (defined as sniffing, licking, chewing or having moving vibrissae whilst directing the nose towards the object at a distance of less than 1 cm) were recorded using stopwatch.
T1 is the total time spent exploring the familiar objects (a1+a2).
T2 is the total time spent exploring the familiar object and novel object (a3+b). Discriminative index=Time spent with novel object/(time spent with novel and familiar object).
The object recognition test was performed as described in Behavioural Brain Research, 1988, 31, 47-59.

[3] = rat, plasma, iv, 1 mg/kg i.v. (bolus)
[4] = rat, plasma, 3 mg/kg oral (gavage)
[5] = 1 mg/kg, p.o., choice trial 24 hours after T1

O=C(N[C@H]1CCCC[C@@H]1O)C1=CN(Cc2cccc(F)c2F)c2ccccc2O1 [Example 18, N-(cis-1S, 2S-2-Hydroxycyclohexyl)-4-(2,3-difluorobenzyl)-4H-benzo[1,4]oxazine-2-carboxamide]
mean increase in cortical sAPPα levels [1]: 38%
Effect on scopolamine induced memory deficit (freezing time) (rats): reversed the scopolamine induced memory deficit
AUC0-t ([2]; 1 mg/kg i.v. (bolus)): 929 ± 27 ng·h/mL
AUC0-t ([2]; 3 mg/kg oral (gavage)): 2070 ± 839 ng·h/mL
clearance [2, 3]: 17 ± 1 mL/min/kg
half-life [2, 3]: 2.1 ± 0.1 h
Vd ([2]; rat, plasma, iv, 1 mg/kg i.v. (bolus), read-out: Vz): 3.2 ± 0.1 L/kg
Cmax [2, 4]: 477 ± 96 ng/mL
Tmax [2, 4]: 0.42 ± 0.14 h
half-life [2, 4]: 3.9 ± 0.8 h
bioavailability ([2]; rat, plasma, 3 mg/kg oral vs 1 mg/kg i.v.): 74 ± 30%
Inference (Male Wistar rats; 1 mg/kg, p.o.): Active
Exploration time mean ± S.E.M, Familiar object (Male Wistar rats; [5]): 8.74 ± 1.49 s
Exploration time mean ± S.E.M, Novel object (Male Wistar rats; [5]): 16.47 ± 1.82 s
Procognitive effects (Male Wistar rats; in combination with donepezil, FIGS. 1 and 2): better than the either treatment
